Publication PMC3257379 (Amino Acids, 2011)
Positions of bridges follow the written chain, without caps; N, C: chain ends. No end group written: not given here.

Legend:
[1] = test system: MDA-MB-435 xenografts; settings: systemic LyP-1 peptide treatment of xenografted tumor mice; ref Laakkonen et al. 2004; cited from earlier work
[2] = test system: tumor-draining brachial LNs of 4T1 tumor-bearing BALB/C mice; assay: Ex vivo optical; type: in vivo, mouse; settings: day 21 after tumor inoculation; 0.8 nmol, 24 h post injection; no blocking; n = 3/group

Substance | Effect on tumor growth [1] | Average signal of tumor-draining LNs [2]
CGNKRTRGC (disulfide 1-9 (inferred)) [LyP-1] | inhibited tumor growth | –
Cy5.5 | – | 25.6 ± 0.25 ×10^3 photon/cm^2/s
